Changes are numbered by the printed parent chain.
What was measured:
[1] = molecular target: T1, human α1aAR SNP V311I (Homo sapiens, UniProt P35348, V311I); assay: Competition binding vs [125I]HEAT, SNP V311I; conditions: high expressing clone
T1 construct: expressed in transfected cells
T1 sequence (P35348 1-466 V311I): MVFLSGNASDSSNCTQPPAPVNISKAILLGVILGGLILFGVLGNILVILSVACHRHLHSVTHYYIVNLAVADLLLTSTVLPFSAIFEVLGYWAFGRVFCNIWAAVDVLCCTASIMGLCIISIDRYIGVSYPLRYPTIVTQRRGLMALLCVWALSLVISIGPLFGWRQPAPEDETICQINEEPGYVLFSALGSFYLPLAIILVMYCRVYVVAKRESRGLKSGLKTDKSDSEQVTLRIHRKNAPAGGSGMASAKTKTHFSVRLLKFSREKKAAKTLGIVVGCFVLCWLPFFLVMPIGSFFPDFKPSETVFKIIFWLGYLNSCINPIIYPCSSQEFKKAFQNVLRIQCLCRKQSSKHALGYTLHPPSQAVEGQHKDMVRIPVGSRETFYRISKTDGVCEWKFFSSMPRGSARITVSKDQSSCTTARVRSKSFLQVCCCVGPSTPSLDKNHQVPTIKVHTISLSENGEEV

[2] = molecular target: T1, human α1aAR SNP V311I; assay: NE-stimulated inositol phosphate (IP) production, SNP V311I; assay type: cell-based
[3] = molecular target: T2, human α1aAR SNP G247R (Homo sapiens, UniProt P35348, G247R); assay: NE-stimulated inositol phosphate (IP) production, SNP G247R; assay type: cell-based; conditions: low-expression stable clones
T2 construct: expressed in transfected cells
T2 sequence (P35348 1-466 G247R): T1 sequence (P35348 1-466 V311I) with G247R, I311V

[4] = molecular target: T3, human α1aAR SNP I200S (Homo sapiens, UniProt P35348, I200S); assay: Competition binding vs [125I]HEAT, SNP I200S; conditions: high expressing clone
T3 construct: expressed in transfected cells; host or cells: rat-1 fibroblasts (membranes)
T3 sequence (P35348 1-466 I200S): T1 sequence (P35348 1-466 V311I) with I200S, I311V

SMILES: NC[C@H](O)c1ccc(O)c(O)c1 [NE, (−)-norepinephrine]
- Ki increase vs WT (decrease in receptor affinity) [1]: ~3 fold
- decrease in potency of NE-stimulated IP formation compared with WT ([2]; high-expression stable clone): 2.4 fold
- EC50 for NE vs WT ([2]; low-expression stable clone): significantly increased EC50
- EC50 for NE vs WT ([2]; transiently transfected rat-1 fibroblasts): significantly increased EC50
- maximum IP production (maximum activity) vs WT [3]: significantly higher maximum activity

SMILES: CNC[C@H](O)c1cccc(O)c1 [phenylephrine]
- Ki increase vs WT (decrease in receptor affinity) [1]: ~3 fold

SMILES: Cc1ccc(N(CC2=NCCN2)c2cccc(O)c2)cc1 [phentolamine]
- Ki increase vs WT (decreased binding affinity) [4]: ~3 fold

SMILES: COc1ccccc1N1CCN(CCCNc2c(C)c(=O)n(C)c(=O)n2C)CC1 [5-methylurapidil]
- higher affinity vs WT [1]: 3 fold

— patent US20040265846A1, “Adrenergic receptors” (DUKE UNIVERSITY, priority 2002, published 2004)
